PMC9925730, “Controlled sequential in situ self-assembly and disassembly of a fluorogenic cisplatin prodrug for cancer theranostics” (Nature Communications, 2023)
Where “and” joins values, the source holds several entries; their conditions need not be identical. Equal entries are not always repeated.

Legend:
[1] = CMC of CyPt and stability of PtIVNPs under different pH conditions; assay type: physicochemical; details: for FL intensity at 710 nm: Supplementary Fig. 8 a
Method: Co n cen t rati o n (μM) Time (h) Time (h)
Supplementary Figure 8. Evaluation of the CMC and stability of PtIVNPs under different pH conditions. (a) Plots of the fluorescence intensity (λem = 710 nm) versus the concentration of CyPt in Tris buffer determine the CMC of CyPt, which was found to be ~0.3 μM according to the intersection of the two linear fit lines. (b, c) Monitoring of the hydrodynamic size of Pt IVNPs upon incubation under (b) pH = 5.0, and (c) pH = 7.4 (10 μM) for 0-24 h. Date denote mean ± s.d. (n = 3 independent experiments).
(also on this page, place not known: Na 3VO4 ( λem 850 800 Normalized FL intensity Tris Trypsin Caspase-3 Normalized FL intensity 200Diameter (nm) 10 Diameter (nm) 7.4(b) CMC=0.3 00 . . 51.0 Concentration FL intensity (1 X 105) 0 2 1.5 2.0 3.0 (c)(a))

ALP [2] = target: T1, ALP (Bos taurus, UniProt P19111); test: Sensitivity of P-CyPt towards ALP (detection limit); assay type: biochemical; details: for Normalized FL intensity at 710 nm (individual replicates) / Normalized FL intensity at 710 nm, mean: Supplementary Fig. 6b
T1 construct: Alkaline phosphatase from bovine; purchased Sigma-Aldrich; host or cells: bovine intestinal mucosa (tissue-derived)
Target sequence in this assay (P19111 20-506 limits assumed): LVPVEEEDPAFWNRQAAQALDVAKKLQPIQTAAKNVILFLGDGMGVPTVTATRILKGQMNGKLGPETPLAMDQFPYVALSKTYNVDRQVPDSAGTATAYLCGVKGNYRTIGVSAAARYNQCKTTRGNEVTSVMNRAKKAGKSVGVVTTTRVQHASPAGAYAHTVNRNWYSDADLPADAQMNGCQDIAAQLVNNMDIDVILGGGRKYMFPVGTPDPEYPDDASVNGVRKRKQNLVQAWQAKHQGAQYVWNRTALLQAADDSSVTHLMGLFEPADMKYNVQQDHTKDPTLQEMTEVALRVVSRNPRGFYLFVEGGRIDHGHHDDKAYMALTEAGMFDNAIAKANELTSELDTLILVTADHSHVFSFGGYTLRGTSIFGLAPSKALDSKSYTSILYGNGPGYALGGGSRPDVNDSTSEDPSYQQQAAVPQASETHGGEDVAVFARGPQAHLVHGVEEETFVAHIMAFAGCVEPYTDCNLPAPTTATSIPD

ALP [3] = test: Enzyme kinetics of P-CyPt towards ALP (Lineweaver-Burk); assay type: biochemical; details: Supplementary Fig. 5b; for 1/v, mean: mean of 3 samples
ALP [4] = target: T1, ALP; test: as above; assay type: biochemical; details: ALP (20 U/L)
Target sequence in this assay (P19111 20-533): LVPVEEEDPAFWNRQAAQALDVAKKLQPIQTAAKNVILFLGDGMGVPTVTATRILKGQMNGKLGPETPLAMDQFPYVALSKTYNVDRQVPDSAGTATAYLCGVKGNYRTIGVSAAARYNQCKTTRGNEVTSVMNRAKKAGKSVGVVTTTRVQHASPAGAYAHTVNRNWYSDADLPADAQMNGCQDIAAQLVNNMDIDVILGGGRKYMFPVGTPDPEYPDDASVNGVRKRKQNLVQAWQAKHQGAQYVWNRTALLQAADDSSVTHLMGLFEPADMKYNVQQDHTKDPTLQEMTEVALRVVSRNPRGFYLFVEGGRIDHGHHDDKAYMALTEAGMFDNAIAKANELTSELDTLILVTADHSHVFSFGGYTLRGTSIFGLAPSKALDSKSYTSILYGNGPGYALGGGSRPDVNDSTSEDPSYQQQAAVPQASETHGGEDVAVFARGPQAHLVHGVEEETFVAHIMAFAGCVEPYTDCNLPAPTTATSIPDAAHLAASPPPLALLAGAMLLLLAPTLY

s.c. HeLa tumors = test: Ex vivo FL imaging of resected tumors and organs; assay type: in vivo, mice; details: 4 h post i.v. injection
Method: Supplementary Figure 27. Ex vivo FL imaging of tumors and main organs. (a) Representative ex vivo FL images (λex/em = 660/750 ± 50 nm) and (b) average FL intensities of tumors and main organs resected from P-CyPt- or PtIVNPs-treated HeLa […]
200 μL). After 4 h, the mice were sacrificed. Tumors (T) and main organs, including liver (L), heart (H), spleen (Sp), lung (Lu), kidney (K), stomach (St), and intestine (In) were resected, and the FL images were acquired on the IVIS spectrum imager. Values denote mean ± s.d. (n = 3 independent animals). Statistical difference was analyzed by Student’s two-sided t-test. Source data are provided as a Source Data file.
Supplementary Figure 28. FL imaging of resected tumor tissue slices. FL images of tumor tissue slices (10 μm thickness) resected from s.c. HeLa tumor-bearing mice at 4 h after i.v. injection of PBS (200 μL), PtIVNPs or P-CyPt (100 μM, 200 μL). Cell nuclei were co-stained with DAPI (blue). […]
μm. […] The fluorescence images of the MCTS were captured on a Leica TCS SP8 confocal laser scanning microscope, microscope (TCS SP8 STED 3X) with 10x/0.4 dry lens (Leica), and captured at RGB on a HyD detector (Leica Dmi8) under PI and Cy5.5 channels. […]
were sacrificed after 4 h. […] The fluorescence images of these organs and tumors were acquired with the IVIS Lumina XR III imaging system using a 660 nm excitation filter and a 750 ± 50 nm emission filter. […]

SMILES: CC1(C)C(/C=C/C2=C3Oc4cc(O)c(Cl)cc4C=C3CCC2)=[N+](CCCNC(=O)[C@@H](Cc2ccccc2)NC(=O)[C@@H](Cc2ccccc2)NC(=O)CCC(=O)[O][Pt]([NH2])([NH2])([OH])([Cl])[Cl])c2ccccc21 [CyPt]
- FL intensity at 710 nm ([1]; concentration of CyPt 0.05 μM): 2780
- FL intensity at 710 nm ([1]; concentration of CyPt 0.1 μM): 5650
- FL intensity at 710 nm ([1]; concentration of CyPt 0.2 μM): 11030
- FL intensity at 710 nm ([1]; concentration of CyPt 0.3 μM): 17800
- FL intensity at 710 nm ([1]; concentration of CyPt 0.5 μM): 19720
- FL intensity at 710 nm ([1]; concentration of CyPt 1 μM): 24040
- FL intensity at 710 nm ([1]; concentration of CyPt 2 μM): 35120
- FL intensity at 710 nm ([1]; concentration of CyPt 3 μM): 46610
- critical micellar concentration (CMC) ([1]; Tris buffer, fluorescence at 710 nm): ≈ 0.3 μM

SMILES: CC1(C)C(/C=C/C2=C3Oc4cc(OP(=O)(O)O)c(Cl)cc4C=C3CCC2)=[N+](CCCNC(=O)[C@@H](Cc2ccccc2)NC(=O)[C@@H](Cc2ccccc2)NC(=O)CCC(=O)[O][Pt]([NH2])([NH2])([OH])([Cl])[Cl])c2ccccc21 [P-CyPt]
- Normalized FL intensity at 710 nm (individual replicates) (ALP [2]; ALP concentration 0 U/L): 0.8554 and 0.8726 and 0.8742
- Normalized FL intensity at 710 nm, mean (ALP [2]; ALP concentration 0 U/L): 0.867
- Normalized FL intensity at 710 nm (individual replicates) (ALP [2]; ALP concentration 0.5 U/L): 0.9653 and 1.0053 and 1.0982
- Normalized FL intensity at 710 nm, mean (ALP [2]; ALP concentration 0.5 U/L): 1.023
- Normalized FL intensity at 710 nm (individual replicates) (ALP [2]; ALP concentration 1 U/L): 1.1743 and 1.1873 and 1.137
- Normalized FL intensity at 710 nm, mean (ALP [2]; ALP concentration 1 U/L): 1.166
- Normalized FL intensity at 710 nm (individual replicates) (ALP [2]; ALP concentration 2 U/L): 1.4406 and 1.5171 and 1.5718
- Normalized FL intensity at 710 nm, mean (ALP [2]; ALP concentration 2 U/L): 1.510
- Normalized FL intensity at 710 nm (individual replicates) (ALP [2]; ALP concentration 5 U/L): 2.2381 and 2.3195 and 2.3579
- Normalized FL intensity at 710 nm, mean (ALP [2]; ALP concentration 5 U/L): 2.305
- Normalized FL intensity at 710 nm (individual replicates) (ALP [2]; ALP concentration 10 U/L): 3.458 and 3.6281 and 3.6545
- Normalized FL intensity at 710 nm, mean (ALP [2]; ALP concentration 10 U/L): 3.580
- Normalized FL intensity at 710 nm (individual replicates) (ALP [2]; ALP concentration 15 U/L): 4.5389 and 4.8786 and 4.9735
- Normalized FL intensity at 710 nm, mean (ALP [2]; ALP concentration 15 U/L): 4.797
- Normalized FL intensity at 710 nm (individual replicates) (ALP [2]; ALP concentration 20 U/L): 5.7617 and 5.8661 and 6.3529
- Normalized FL intensity at 710 nm, mean (ALP [2]; ALP concentration 20 U/L): 5.994
- detection limit for ALP (ALP [2]; P-CyPt 10 μM, 30 min, 3σ/k method): ~ 0.098 U/L
- 1/v, single samples (sample-1 to sample-3) (ALP [3]; 1/S [μM] 0.2): 7.131 min/µM and 6.758 min/µM and 6.78 min/µM
- 1/v, mean (ALP [3]; 1/S [μM] 0.2): 6.889 min/µM
- 1/v, single samples (sample-1 to sample-3) (ALP [3]; 1/S [μM] 0.25): 8.023 min/µM and 8.58 min/µM and 6.977 min/µM
- 1/v, mean (ALP [3]; 1/S [μM] 0.25): 7.860 min/µM
- 1/v, single samples (sample-1 to sample-3) (ALP [3]; 1/S [μM] 0.333333): 10.0959 min/µM and 10.7285 min/µM and 10.3072 min/µM
- 1/v, mean (ALP [3]; 1/S [μM] 0.333333): 10.377 min/µM
- 1/v, single samples (sample-1 to sample-3) (ALP [3]; 1/S [μM] 0.5): 12.1342 min/µM and 13.921 min/µM and 15.7076 min/µM
- 1/v, mean (ALP [3]; 1/S [μM] 0.5): 13.921 min/µM
- 1/v, single samples (sample-1 to sample-3) (ALP [3]; 1/S [μM] 1): 22.8038 min/µM and 25.6597 min/µM and 28.5158 min/µM
- 1/v, mean (ALP [3]; 1/S [μM] 1): 25.660 min/µM
- 1/v, single samples (sample-1 to sample-3) (ALP [3]; 1/S [μM] 2): 49.1562 min/µM and 54.4739 min/µM and 57.4911 min/µM
- 1/v, mean (ALP [3]; 1/S [μM] 2): 53.707 min/µM
- Vmax (ALP [4]): 0.55 µM/min
- Km (ALP [4]; P-CyPt 0.5-5.0 μM): 14 µM
- ex vivo tumor FL intensity higher than Pt^IVNPs-treated tumors (s.c. HeLa tumors): ~ 3.2 fold
